Reference: ChEMBL document CHEMBL3885881, “DrugMatrix”

Organism: Rattus norvegicus
Experiment: DrugMatrix - Regimen: Daily Repeat
Assay type: toxicity, organism-based, Sprague-Dawley
Design: regimen Daily Repeat, gender Male, age 6-8 weeks
Details: in vivo, iv, vehicle 100 % SALINE; for ABSOLUTE BASOPHIL / ABSOLUTE EOSINOPHIL / ABSOLUTE LYMPHOCYTE / ABSOLUTE MONOCYTE / ABSOLUTE SEGMENTED NEUTROPHIL / BASOPHIL / EOSINOPHIL / ERYTHROCYTE COUNT / HEMATOCRIT / HEMOGLOBIN / LEUKOCYTE COUNT / LYMPHOCYTE / MEAN CORPUSCULAR HEMOGLOBIN / MEAN CORPUSCULAR HEMOGLOBIN CONCENTRATION / MEAN CORPUSCULAR VOLUME / MONOCYTE / NEUTROPHIL / NUCLEATED RED BLOOD CELLS / PLATELET COUNT: tissue Blood; for ALANINE AMINOTRANSFERASE / ALBUMIN / ALKALINE PHOSPHATASE / ASPARTATE AMINOTRANSFERASE / BLOOD UREA NITROGEN / CARBON DIOXIDE / CHLORIDE / CHOLESTEROL / CREATINE PHOSPHOKINASE / CREATININE / GLUCOSE / LACTATE DEHYDROGENASE / LIPASE / PHOSPHORUS / POTASSIUM / SODIUM / TOTAL BILIRUBIN / TOTAL PROTEIN / URIC ACID: tissue Plasma
[1] = 100 mg/kg, 72 h, dose level Low, time 3 day
[2] = 100 mg/kg, 120 h, dose level Low, time 5 day
[3] = 755 mg/kg, 72 h, dose level High, time 3 day
[4] = 755 mg/kg, 120 h, dose level High, time 5 day

O=S(=O)([O-])CCS.[Na+] [MESNA]
ABSOLUTE BASOPHIL [1]: 0 CELLS/uL | ABSOLUTE EOSINOPHIL [1]: 43.67 CELLS/uL | ABSOLUTE LYMPHOCYTE [1]: 13323 CELLS/uL | ABSOLUTE MONOCYTE [1]: 251.67 CELLS/uL | ABSOLUTE SEGMENTED NEUTROPHIL [1]: 848.33 CELLS/uL | BASOPHIL [1]: 0% | EOSINOPHIL [1]: 0.33% | ERYTHROCYTE COUNT [1]: 6 x10E6/uL | HEMATOCRIT [1]: 37.23% | HEMOGLOBIN [1]: 13.77 G/DL | LEUKOCYTE COUNT [1]: 14.47 x10E3/uL | LYMPHOCYTE [1]: 92% | MEAN CORPUSCULAR HEMOGLOBIN [1]: 22.97 pg | MEAN CORPUSCULAR HEMOGLOBIN CONCENTRATION [1]: 36.97 G/DL | MEAN CORPUSCULAR VOLUME [1]: 62.07 fL | MONOCYTE [1]: 1.67% | NEUTROPHIL [1]: 6% | NUCLEATED RED BLOOD CELLS [1]: 0.67 /100WBC | PLATELET COUNT [1]: 1218 x10E3/uL | ALANINE AMINOTRANSFERASE [1]: 53.67 u/L | ALBUMIN [1]: 4.3 G/DL | ALKALINE PHOSPHATASE [1]: 358.33 u/L | ASPARTATE AMINOTRANSFERASE [1]: 87 u/L | BLOOD UREA NITROGEN [1]: 15 mg/dL | CARBON DIOXIDE [1]: 26 mmol/L | CHLORIDE [1]: 102.33 MEQ/L | CHOLESTEROL [1]: 79.33 mg/dL | CREATINE PHOSPHOKINASE [1]: 501.33 u/L | CREATININE [1]: 0.29 mg/dL | GLUCOSE [1]: 159.67 mg/dL | LACTATE DEHYDROGENASE [1]: 166 u/L | LIPASE [1]: 12 u/L | PHOSPHORUS [1]: 12.7 mg/dL | POTASSIUM [1]: 6.86 MEQ/L | SODIUM [1]: 147.77 MEQ/L | TOTAL BILIRUBIN [1]: 0.2 mg/dL | TOTAL PROTEIN [1]: 6.23 G/DL | URIC ACID [1]: 1.63 mg/dL | ABSOLUTE BASOPHIL [2]: 0 CELLS/uL | ABSOLUTE EOSINOPHIL [2]: 120.33 CELLS/uL | ABSOLUTE LYMPHOCYTE [2]: 14708 CELLS/uL | ABSOLUTE MONOCYTE [2]: 625.67 CELLS/uL | ABSOLUTE SEGMENTED NEUTROPHIL [2]: 879.33 CELLS/uL | BASOPHIL [2]: 0% | EOSINOPHIL [2]: 0.67% | ERYTHROCYTE COUNT [2]: 5.55 x10E6/uL | HEMATOCRIT [2]: 36.7% | HEMOGLOBIN [2]: 13.53 G/DL | LEUKOCYTE COUNT [2]: 16.33 x10E3/uL | LYMPHOCYTE [2]: 90.33% | MEAN CORPUSCULAR HEMOGLOBIN [2]: 24.4 pg | MEAN CORPUSCULAR HEMOGLOBIN CONCENTRATION [2]: 36.9 G/DL | MEAN CORPUSCULAR VOLUME [2]: 66.07 fL | MONOCYTE [2]: 3.67% | NEUTROPHIL [2]: 5.33% | NUCLEATED RED BLOOD CELLS [2]: 0 /100WBC | PLATELET COUNT [2]: 1137 x10E3/uL | ALANINE AMINOTRANSFERASE [2]: 56.67 u/L | ALBUMIN [2]: 4.33 G/DL | ALKALINE PHOSPHATASE [2]: 375 u/L | ASPARTATE AMINOTRANSFERASE [2]: 83.67 u/L | BLOOD UREA NITROGEN [2]: 15.33 mg/dL | CARBON DIOXIDE [2]: 22.67 mmol/L | CHLORIDE [2]: 102.67 MEQ/L | CHOLESTEROL [2]: 87.33 mg/dL | CREATINE PHOSPHOKINASE [2]: 282.67 u/L | CREATININE [2]: 0.27 mg/dL | GLUCOSE [2]: 153.67 mg/dL | LACTATE DEHYDROGENASE [2]: 140.67 u/L | LIPASE [2]: 11 u/L | PHOSPHORUS [2]: 11.4 mg/dL | POTASSIUM [2]: 6.06 MEQ/L | SODIUM [2]: 146.67 MEQ/L | TOTAL BILIRUBIN [2]: 0.3 mg/dL | TOTAL PROTEIN [2]: 6.4 G/DL | URIC ACID [2]: 1.07 mg/dL | ABSOLUTE BASOPHIL [3]: 0 CELLS/uL | ABSOLUTE EOSINOPHIL [3]: 65.67 CELLS/uL | ABSOLUTE LYMPHOCYTE [3]: 13484.33 CELLS/uL | ABSOLUTE MONOCYTE [3]: 234.33 CELLS/uL | ABSOLUTE SEGMENTED NEUTROPHIL [3]: 1215.67 CELLS/uL | BASOPHIL [3]: 0% | EOSINOPHIL [3]: 0.33% | ERYTHROCYTE COUNT [3]: 5.37 x10E6/uL | HEMATOCRIT [3]: 34.63% | HEMOGLOBIN [3]: 12.87 G/DL | LEUKOCYTE COUNT [3]: 15 x10E3/uL | LYMPHOCYTE [3]: 90% | MEAN CORPUSCULAR HEMOGLOBIN [3]: 23.93 pg | MEAN CORPUSCULAR HEMOGLOBIN CONCENTRATION [3]: 37.17 G/DL | MEAN CORPUSCULAR VOLUME [3]: 64.43 fL | MONOCYTE [3]: 1.67% | NEUTROPHIL [3]: 8% | NUCLEATED RED BLOOD CELLS [3]: 0 /100WBC | PLATELET COUNT [3]: 960.33 x10E3/uL | ALANINE AMINOTRANSFERASE [3]: 55.33 u/L | ALBUMIN [3]: 4.07 G/DL | ALKALINE PHOSPHATASE [3]: 330.67 u/L | ASPARTATE AMINOTRANSFERASE [3]: 74.33 u/L | BLOOD UREA NITROGEN [3]: 17.33 mg/dL | CARBON DIOXIDE [3]: 25.67 mmol/L | CHLORIDE [3]: 102 MEQ/L | CHOLESTEROL [3]: 76 mg/dL | CREATINE PHOSPHOKINASE [3]: 342.67 u/L | CREATININE [3]: 0.21 mg/dL | GLUCOSE [3]: 165.33 mg/dL | LACTATE DEHYDROGENASE [3]: 152.67 u/L | LIPASE [3]: 9.67 u/L | PHOSPHORUS [3]: 12.4 mg/dL | POTASSIUM [3]: 6.83 MEQ/L | SODIUM [3]: 143.67 MEQ/L | TOTAL BILIRUBIN [3]: 0.13 mg/dL | TOTAL PROTEIN [3]: 6.23 G/DL | URIC ACID [3]: 1.8 mg/dL | ABSOLUTE BASOPHIL [4]: 0 CELLS/uL | ABSOLUTE EOSINOPHIL [4]: 0 CELLS/uL | ABSOLUTE LYMPHOCYTE [4]: 18795 CELLS/uL | ABSOLUTE MONOCYTE [4]: 498.33 CELLS/uL | ABSOLUTE SEGMENTED NEUTROPHIL [4]: 1040 CELLS/uL | BASOPHIL [4]: 0% | EOSINOPHIL [4]: 0% | ERYTHROCYTE COUNT [4]: 5.72 x10E6/uL | HEMATOCRIT [4]: 34.77% | HEMOGLOBIN [4]: 13.27 G/DL | LEUKOCYTE COUNT [4]: 20.33 x10E3/uL | LYMPHOCYTE [4]: 92.33% | MEAN CORPUSCULAR HEMOGLOBIN [4]: 23.2 pg | MEAN CORPUSCULAR HEMOGLOBIN CONCENTRATION [4]: 38.2 G/DL | MEAN CORPUSCULAR VOLUME [4]: 60.87 fL | MONOCYTE [4]: 2.67% | NEUTROPHIL [4]: 5% | NUCLEATED RED BLOOD CELLS [4]: 0 /100WBC | PLATELET COUNT [4]: 1209.33 x10E3/uL | ALANINE AMINOTRANSFERASE [4]: 54.33 u/L | ALBUMIN [4]: 4.23 G/DL | ALKALINE PHOSPHATASE [4]: 290 u/L | ASPARTATE AMINOTRANSFERASE [4]: 83.67 u/L | BLOOD UREA NITROGEN [4]: 19.33 mg/dL | CARBON DIOXIDE [4]: 24.33 mmol/L | CHLORIDE [4]: 105.67 MEQ/L | CHOLESTEROL [4]: 75.33 mg/dL | CREATINE PHOSPHOKINASE [4]: 517 u/L | CREATININE [4]: 0.21 mg/dL | GLUCOSE [4]: 155 mg/dL | LACTATE DEHYDROGENASE [4]: 338.33 u/L | LIPASE [4]: 9.67 u/L | PHOSPHORUS [4]: 12.17 mg/dL | POTASSIUM [4]: 7.45 MEQ/L | SODIUM [4]: 147 MEQ/L | TOTAL BILIRUBIN [4]: 0.17 mg/dL | TOTAL PROTEIN [4]: 6.23 G/DL | URIC ACID [4]: 2.07 mg/dL
